# Measured values as given in US20080318938A1, “METHODS FOR TREATING ABERRANT CELL PROLIFERATION DISORDERS” (priority 2007, published 2008).
# Where two headings read alike, the source gives them in different places.
# Tests used:
# [1] = biological target: CCKA/CCK1 Cholecystokinin receptor (Homo sapiens, UniProt P32238); experiment: Receptor binding
# Experimental: (§1) The binding IC50, functional effect, and functional EC50 of TA1-1B on exemplary receptors was determined.
# [2] = biological target: SST1 (Homo sapiens, UniProt P30872); experiment: Receptor binding
# Experimental: as §1
# [3] = biological target: SST4 (Homo sapiens, UniProt P31391); experiment: Receptor binding
# Experimental: as §1
# [4] = biological target: SST5 (Homo sapiens, UniProt P35346); experiment: Receptor binding
# Experimental: as §1
# [5] = biological target: Adenosine A2A receptors (Homo sapiens, UniProt P29274); experiment: Receptor binding
# [6] = TA1-1B in plasma, brain and tumor of HCT116 tumor-bearing mice; assay type: in vivo; conditions: 25.0 mg/kg single IV dose; for concentration at 15 min / concentration at 2 h: female, NCr nu/nu, mouse; for concentration at 15 min: 15 min post-dose; for concentration at 2 h: two hour post-dose
# Excerpt: In vivo experiment protocols were approved by the Animal Use and Care Committee. Female NCr nu/nu mice were purchased from Taconic Farms and group housed in a ventilated rack system on a 12/12 light cycle. All housing materials and water were autoclaved prior to use. The mice were fed ad libitum with gamma-irradiated laboratory chow and acidified water. Animals were handled under laminar-flow hoods. Animals were inoculated subcutaneously in the right flank with 5×10̂6 HCT116 cells. Tumors were monitored twice weekly and then daily as they approached the appropriate size for study. On Day 1 of the study, the animals were randomized into n=3 treatment groups with group average tumor sizes of 109 mm^3.
# where w=width and 1=length in mm of the tumor. Tumor weight was estimated with the assumption that 1 mg is equivalent to 1 mm^3 of tumor volume. Mice were dosed with compound TA1-1B at 25.0 mg/kg (single IV dose). At fifteen min and two hour time points, plasma, brain and tumor samples were collected from terminal mice and frozen. It was determined that the tumor contained 0.86 μM, plasma contained 0.74 μM and brain contained 1.47 μM of the therapeutic agent after 15 min post-dose, and the tumor contained 1.6 μM, plasma contained 0.41 μM and brain contained 0.8 μM of the therapeutic agent after the two hour post-dose.
# [7] = Distribution in human whole blood fractions (LC-MS/MS); assay type: in vitro ADME
# Experimental: Twenty five mL healthy donor whole blood was collected in the presence of heparin. Human whole blood was added with Compound TA1-1B to reach final concentration of 3 uM. Whole blood was gently mized and incubated at 37° C. for 4 hrs. At the end of the incubation 0.5 mL blood was collected and centrifuge at 500×g to separate the platelet-rich plasma for further analysis.
# In order to isolate white blood cells, 5 ml of treated blood was subjected to Ficoll density gradient centrifugation. At the end of the centrifugation formed buffy coat containing most of the white blood cells and Ficolle fractions containing red blood cells and granulocites were collected separately. Obtained white cell fraction was washed with 5 ml of isotonic phosphate buffer and saved for further analysis. Obtained fractions were subjected to Compound TA1-1B quantitative analysis using LC-MS/MS. Fractions obtained from untreated whole blood were used as corresponding biological matrices in LC-MS/MS based bioanalysis.
# The most part of added compound (93.7%) was found in blood formed elements than in plasma indicating to a potentially high volume of distribution and good tissue penetration of compound TA1-1B.
# [8] = tested on: sst (non-selective) Somatostatin receptor; experiment: Receptor binding
# [9] = brain, read-out: Concentration in brain
# [10] = plasma, read-out: Concentration in plasma
# [11] = tumor, read-out: Concentration in tumor
# [12] = 3 uM, 37° C., 4 hrs, White cells
# CCKA/CCK1 Cholecystokinin receptor, sequence (P32238 whole entry): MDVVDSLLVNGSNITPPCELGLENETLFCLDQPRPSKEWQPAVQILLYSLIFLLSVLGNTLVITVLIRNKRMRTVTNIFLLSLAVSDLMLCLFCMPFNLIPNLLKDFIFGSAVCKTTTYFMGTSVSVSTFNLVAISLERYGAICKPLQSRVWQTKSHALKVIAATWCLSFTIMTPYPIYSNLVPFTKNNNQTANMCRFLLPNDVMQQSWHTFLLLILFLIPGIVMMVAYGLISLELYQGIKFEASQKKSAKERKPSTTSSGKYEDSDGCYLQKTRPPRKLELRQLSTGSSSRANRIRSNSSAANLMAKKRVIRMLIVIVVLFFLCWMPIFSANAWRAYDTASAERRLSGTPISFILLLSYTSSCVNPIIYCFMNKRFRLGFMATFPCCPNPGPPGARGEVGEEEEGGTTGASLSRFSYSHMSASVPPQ
# SST5, sequence (P35346 whole entry, species assumed): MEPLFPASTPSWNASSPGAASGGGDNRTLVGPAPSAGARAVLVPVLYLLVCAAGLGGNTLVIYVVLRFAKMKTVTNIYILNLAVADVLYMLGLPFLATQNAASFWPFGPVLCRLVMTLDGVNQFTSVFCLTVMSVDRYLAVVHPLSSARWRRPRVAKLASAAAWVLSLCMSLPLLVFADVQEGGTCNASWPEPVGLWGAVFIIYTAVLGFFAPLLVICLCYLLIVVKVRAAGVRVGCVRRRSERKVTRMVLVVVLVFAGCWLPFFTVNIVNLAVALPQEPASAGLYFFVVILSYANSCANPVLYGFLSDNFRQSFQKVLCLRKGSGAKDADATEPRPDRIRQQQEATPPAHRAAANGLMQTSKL
# SST1, sequence (P30872 whole entry, species assumed): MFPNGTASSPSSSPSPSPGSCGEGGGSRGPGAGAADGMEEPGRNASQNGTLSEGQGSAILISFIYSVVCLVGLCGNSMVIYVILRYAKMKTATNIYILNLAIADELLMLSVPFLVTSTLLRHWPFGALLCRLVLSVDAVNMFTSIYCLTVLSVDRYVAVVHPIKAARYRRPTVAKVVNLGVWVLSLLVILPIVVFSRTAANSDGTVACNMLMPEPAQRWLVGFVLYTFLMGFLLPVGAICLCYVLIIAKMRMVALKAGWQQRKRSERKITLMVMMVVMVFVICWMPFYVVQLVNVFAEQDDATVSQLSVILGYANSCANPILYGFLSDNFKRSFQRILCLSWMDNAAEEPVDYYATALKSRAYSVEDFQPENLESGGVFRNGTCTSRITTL
# Adenosine A2A receptors, sequence (P29274 whole entry): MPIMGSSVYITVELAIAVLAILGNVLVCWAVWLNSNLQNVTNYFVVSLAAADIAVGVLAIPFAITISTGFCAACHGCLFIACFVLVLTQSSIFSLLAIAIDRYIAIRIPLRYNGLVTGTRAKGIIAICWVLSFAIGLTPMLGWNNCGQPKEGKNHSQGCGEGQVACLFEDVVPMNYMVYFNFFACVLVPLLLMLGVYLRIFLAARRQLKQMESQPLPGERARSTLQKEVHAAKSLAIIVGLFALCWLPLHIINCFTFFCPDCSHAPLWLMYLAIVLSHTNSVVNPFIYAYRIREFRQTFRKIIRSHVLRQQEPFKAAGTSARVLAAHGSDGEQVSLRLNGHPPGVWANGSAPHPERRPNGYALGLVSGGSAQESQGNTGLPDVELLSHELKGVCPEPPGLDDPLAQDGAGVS
# SST4, sequence (P31391 whole entry, species assumed): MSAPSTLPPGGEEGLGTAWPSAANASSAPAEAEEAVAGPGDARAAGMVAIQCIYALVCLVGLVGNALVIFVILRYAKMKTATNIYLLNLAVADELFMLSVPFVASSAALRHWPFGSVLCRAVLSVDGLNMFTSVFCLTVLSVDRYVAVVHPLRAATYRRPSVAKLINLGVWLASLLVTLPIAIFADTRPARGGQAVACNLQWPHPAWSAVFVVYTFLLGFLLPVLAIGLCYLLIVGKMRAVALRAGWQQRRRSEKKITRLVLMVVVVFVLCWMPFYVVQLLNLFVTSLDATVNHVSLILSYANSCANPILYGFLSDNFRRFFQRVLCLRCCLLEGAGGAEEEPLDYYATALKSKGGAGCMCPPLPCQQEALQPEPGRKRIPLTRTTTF
compound,measurement,setting,value
CN1CCC[C@H]1CCNC(=O)c1cn2c3c(c(N4CCC(c5cnccn5)C4)c(F)cc3c1=O)Oc1cc3ccccc3cc1-2 (stereo partly drawn) [TA1-1B],IC50,[1]; CCK1/CCKA,0.64 µM
same,inhibition at 1 µM,"[1]; CCKA/CCK1, 1 uM",64%
same,IC50,[2],2.8 µM
same,IC50,[3],> 10 µM
same,IC50,[4],> 10 µM
same,inhibition at 1 µM,[5],60%
same,Blood-brain barrier permeation,[6]; heading of Example 3,Permeates the Blood-Brain Barrier
same,concentration at 15 min,[6]; [9],1470 nM
same,concentration at 2 h,[6]; [9],800 nM
same,concentration at 15 min,[6]; [10],740 nM
same,concentration at 2 h,[6]; [10],410 nM
same,concentration at 15 min,[6]; [11],860 nM
same,concentration at 2 h,[6]; [11],1600 nM
same,Mass balance Amount,"[7]; 3 uM added, 5 mL",14.7 nmol
same,Mass balance Conc.,"[7]; 3 uM added, 5 mL",2.95 µM
same,% of compound in plasma fraction,"[7]; 3 uM, 37° C., 4 hrs, Plasma",6.2%
same,Amount in plasma fraction,"[7]; 3 uM, 37° C., 4 hrs, Plasma",0.92 nmol
same,Conc. in plasma fraction,"[7]; 3 uM, 37° C., 4 hrs, Plasma",370 nM
same,% of compound in red cells fraction,"[7]; 3 uM, 37° C., 4 hrs, Red cells",81.5%
same,Amount in red cells fraction,"[7]; 3 uM, 37° C., 4 hrs, Red cells",12.0 nmol
same,Conc. in red cells fraction,"[7]; 3 uM, 37° C., 4 hrs, Red cells",4850 nM
same,Total amount in all fractions,"[7]; 3 uM, 37° C., 4 hrs, Total",14.7 nmol
same,% of compound in white cells fraction,[7]; [12],12.2%
same,Amount in white cells fraction,[7]; [12],1.8 nmol
same,Conc. in white cells fraction,[7]; [12],81790 nM
same,Part of added compound found in blood formed elements,"[7]; 3 uM, 37° C., 4 hrs, red and white cells versus plasma",93.7%
same,% inhibition @ 1 uM,[8],62%
